Columns and labels:
MuLV virus = assay: Inactivation of MuLV with caprylic acid at different concentrations and pH; conditions: for Titre of MuLV virus after inactivation with caprylic acid: MuLV content 1.2 × 10^6; for Titre of MuLV after inactivating of MuLV with 60 mM caprylic acid: MuLV content 2.7 × 10^5
Source text: The inactivation of MuLV was investigated at different concentrations of caprylic and at different pH (Table 6).

eMuLV virus = assay: Clearance of spiked eMuLV by chromatography with a caprylic acid wash; conditions: 30 min
Experimental: A cell line media containing a recombinant human Fab-fragment was filtered through a 0.22 μm and then spiked with eMuLV virus. The spiked media was applied to a column packed with Capto L media (GE-Healthcare). […] Process temperature was 15-25° C. […] A cell line media containing a recombinant human antibody (IgG1) was filtered through a 0.22 μm filter and spiked with eMuLV virus. The spiked media was loaded on a column packed with Protein A (Mab Select SuRe, Ge Healthcare). […] After pH had stabilised the washing continued for 30 min. After 3 other washings (equilibration buffer, 50 mmol/kg phosphate, 1 mol/kg NaCl and then equilibration buffer), the mAb was eluted from the column with a formate buffer, pH 3.5. […] The process temperature was 15-25° C. A cell line media containing a recombinant human antibody (IgG4) was filtered through a 0.22 μm filter and spiked with eMuLV virus. The spiked media was loaded on a column packed with Protein A (Mab Select SuRe, Ge Healthcare). […] After pH had stabilised the washing continued for 30 min. After 3 other washing (equilibration buffer, 50 mmol/kg phosphate, 1 mol/kg NaCl) and then equilibration buffer), the mAb was eluted from the column with a formate buffer, pH 3.5. […] The process temperature was 15-25° C. A cell line media containing a recombinant human antibody (IgG1) was filtered through a 0.22 μm filter and spiked with eMuLV virus. The spiked media was loaded on a column packed with Protein A (Mab Select SuRe, Ge Healthcare). […] After pH had stabilised the washing continued for 30 min. After 3 other washings (equilibration buffer, 50 mmol/kg phosphate, 1 mol/kg NaCl and then equilibration buffer), the mAb was eluted from the column with a formate buffer, pH 3.5. […] The process temperature was 2-8° C.

[1] = 60 mM, pH 6.0, free caprylic acid 4.3 mM, 1 minute
[2] = 60 mM, pH 6.0, free caprylic acid 4.3 mM, 5 minutes
[3] = 60 mM, pH 6.0, free caprylic acid 4.3 mM, 10 minutes
[4] = 60 mM, pH 6.0, free caprylic acid 4.3 mM, 30 minutes

CCCCCCCC(=O)O [caprylic acid]
0: Titre of MuLV virus after inactivation with caprylic acid (MuLV virus; 10 mM, pH 5.0, free caprylic acid 4.4 mM, 5 minutes) | Titre of MuLV virus after inactivation with caprylic acid (MuLV virus; 10 mM, pH 5.0, free caprylic acid 4.4 mM, 10 minutes) | Titre of MuLV virus after inactivation with caprylic acid (MuLV virus; 10 mM, pH 5.0, free caprylic acid 4.4 mM, 30 minutes) | Titre of MuLV virus after inactivation with caprylic acid (MuLV virus; 20 mM, pH 5.5, free caprylic acid 3.9 mM, 5 minutes) | Titre of MuLV virus after inactivation with caprylic acid (MuLV virus; 20 mM, pH 5.5, free caprylic acid 3.9 mM, 10 minutes) | Titre of MuLV virus after inactivation with caprylic acid (MuLV virus; 20 mM, pH 5.5, free caprylic acid 3.9 mM, 30 minutes) | Titre of MuLV after inactivating of MuLV with 60 mM caprylic acid (MuLV virus; 60 mM, pH 5.9, free caprylic acid 5.3 mM, 5 minutes) | Titre of MuLV after inactivating of MuLV with 60 mM caprylic acid (MuLV virus; 60 mM, pH 5.9, free caprylic acid 5.3 mM, 10 minutes) | Titre of MuLV after inactivating of MuLV with 60 mM caprylic acid (MuLV virus; 60 mM, pH 5.9, free caprylic acid 5.3 mM, 30 minutes) | Titre of MuLV virus after inactivation with caprylic acid (MuLV virus; [1]) | Titre of MuLV virus after inactivation with caprylic acid (MuLV virus; [2]) | Titre of MuLV after inactivating of MuLV with 60 mM caprylic acid (MuLV virus; [2]) | Titre of MuLV virus after inactivation with caprylic acid (MuLV virus; [3]) | Titre of MuLV after inactivating of MuLV with 60 mM caprylic acid (MuLV virus; [3]) | Titre of MuLV virus after inactivation with caprylic acid (MuLV virus; [4]) | Titre of MuLV after inactivating of MuLV with 60 mM caprylic acid (MuLV virus; [4]) | Titre of MuLV after inactivating of MuLV with 60 mM caprylic acid (MuLV virus; 60 mM, pH 6.1, free caprylic acid 3.5 mM, 1 minute) | Titre of MuLV after inactivating of MuLV with 60 mM caprylic acid (MuLV virus; 60 mM, pH 6.1, free caprylic acid 3.5 mM, 5 minutes) | Titre of MuLV after inactivating of MuLV with 60 mM caprylic acid (MuLV virus; 60 mM, pH 6.1, free caprylic acid 3.5 mM, 10 minutes) | Titre of MuLV after inactivating of MuLV with 60 mM caprylic acid (MuLV virus; 60 mM, pH 6.1, free caprylic acid 3.5 mM, 30 minutes) | Titre of MuLV after inactivating of MuLV with 60 mM caprylic acid (MuLV virus; 60 mM, pH 6.2, free caprylic acid 2.8 mM, 5 minutes) | Titre of MuLV after inactivating of MuLV with 60 mM caprylic acid (MuLV virus; 60 mM, pH 6.2, free caprylic acid 2.8 mM, 10 minutes) | Titre of MuLV after inactivating of MuLV with 60 mM caprylic acid (MuLV virus; 60 mM, pH 6.2, free caprylic acid 2.8 mM, 30 minutes) | Titre of MuLV after inactivating of MuLV with 60 mM caprylic acid (MuLV virus; 60 mM, pH 6.3, free caprylic acid 2.2 mM, 5 minutes) | Titre of MuLV after inactivating of MuLV with 60 mM caprylic acid (MuLV virus; 60 mM, pH 6.3, free caprylic acid 2.2 mM, 10 minutes) | Titre of MuLV after inactivating of MuLV with 60 mM caprylic acid (MuLV virus; 60 mM, pH 6.3, free caprylic acid 2.2 mM, 30 minutes)
>2.8: LRV (eMuLV virus; Example 3: IgG4, Protein A, 32 mmol/kg caprylate buffer pH 5.8 (2.9 mM free caprylic acid), 15-25° C.)
more than 5.4 log 10: inactivation of MuLV (MuLV virus; 60 mM caprylic acid, pH range 5.9 to 6.3, within 5 minutes)
complete inactivation: inactivation of MuLV (MuLV virus; pH range 5.0 to 6.0, free caprylic acid at least about 4 mM, after 5 minutes)
2.5: Titre of MuLV after inactivating of MuLV with 60 mM caprylic acid (MuLV virus; [1])
no inactivation was observed: inactivation of MuLV (MuLV virus; free caprylic acid below 1 mM)
>3.0: LRV (eMuLV virus; Example 2: IgG1, Protein A, 32 mmol/kg caprylate buffer pH 5.8 (2.9 mM free caprylic acid), 15-25° C.) | LRV (eMuLV virus; Example 4: IgG1, Protein A, 35 mmol/kg caprylate buffer pH 5.7 (3.9 mM free caprylic acid), 2-8° C.)
partial inactivation: inactivation of MuLV (MuLV virus; caprylic acid concentrations of about 2 mM, after 30 minutes)

Source: patent US20220324906A1 (Novo Nordisk A/S, priority 2014, published 2022)
